Assay results as given in patent US20090239926A1, “METHODS FOR THE TREATMENT OF PSORIASIS OR PSORIATIC ARTHRITIS USING CYCLOPROPYL-N-CARBOXAMIDE” (priority 2008, published 2009).
pIC50: −log10 of the molar value. Several values for one entry are separate records, joined by “and”; a condition that tells them apart may be missing. Equal values may be shown once.

How the values were obtained:
[1] = tested on: CD11b expression on neutrophils; experiment: fMLF-induced neutrophil CD11b expression; format: cell-based; settings: Homo sapiens, 0.5 h, 30 nM fMLF, 30 minutes, flow cytometry
Procedure: (§1) CD18/CD11b (Mac-1) expression on neutrophils was measured with the following modifications. (Derian, C. K., et al., J Immunol, 1995. 154(1): 308-17). Neutrophils were isolated as described above, then resuspended in complete medium at 1×10^6 cells/ml, pretreated with Compound A at 10, 1, 0.1, 0.01, and 0 μM in duplicate at a final DMSO concentration of 0.1% for 10 minutes at 37° C. 5% CO2. Cells were then stimulated with 30 nM fMLF for 30 minutes and then chilled to 4° C. Cells were treated with rabbit IgG (Jackson ImmunoResearch Labs, West Grove, Pa., USA) (10 μg/1×10^6 cells) to block Fc receptors, stained with CD18-FITC and CD11b-PE (Becton Dickinson), and analyzed by flow cytometry on a FACSCalibur. CD18/CD11b expression (mean fluorescence) in the absence of stimulation was subtracted from all samples to obtain inhibition curves and calculate IC50.

[2] = tested on: LPS-induced serum TNF-α in female BALB/c mice; experiment: Mouse LPS-induced serum TNF-α production; format: in vivo; settings: po
Procedure: Mouse LPS-induced serum TNF-α production: Compound A was administered to female BALB/c mice orally by gavage two hours prior to LPS challenge. Blood was drawn 1.5 hours after LPS challenge, and serum TNF-α was measured as described above.

[3] = tested on: TNF-α production by synoviocytes from rheumatoid arthritis patients; experiment: TNF-α production by human rheumatoid synovial membrane cells; format: cell-based; settings: 48 hours culture, ELISA
Procedure: Human Rheumatoid Synovial Membrane Cell: Rheumatoid synovial membrane tissue samples were processed to dissociate the cells from the matrix by digesting the tissue with Collagenase A and DNAse. The cells were then plated into a 96-well flat-bottom plate at 1×10^6/well in RPMI (10% FCS) and treated with Compound A and controls (in triplicate). The cells were cultured for 48 hours at 37° C. in 5% CO2 before supernatants were harvested and analyzed by ELISA.
Compound A was solubilized under sterile conditions in filter-sterilized dimethyl sulphoxide (DMSO). The vehicle control contained the same concentration of DMSO used as the diluent in the highest concentration of drug used. A combined treatment of anti-TNF-α and IL-1RA, both at 10 μg/ml, was used as a positive control.

[4] = tested on: LPS-stimulated monocyte TNF-α production; experiment: LPS-induced TNF-α production in monocytes; format: cell-based; settings: Homo sapiens, LPS 10 ng/ml, 24 hours
Procedure: LPS-induced TNF-α production in Monocytes: Monocytes separated from human peripheral blood mononuclear cells (PBMCs) were plated into a 96-well flat bottom plate at 1×10^5/well in RPMI (5% heat inactivated fetal calf serum (FCS) and then treated with increasing concentrations of Compound A and control (in triplicate). Following a 30 minute pre-incubation period, the monocytes were stimulated with LPS (10 ng/ml) and cultured for 24 hours at 37° C. in 5% CO2. The supernatants are then harvested and analyzed by ELISA.

[5] = tested on: LPS-stimulated human PBMC TNF-α production; experiment: LPS-induced TNF-α production in human PBMC; format: cell-based; settings: LPS 100 ng/ml, 18-20 hours
Procedure: LPS-induced TNF-α production in Human PBMC: Human peripheral blood mononuclear cells (PBMC) (2×10^5 cells) were plated in 96-well flat-bottom Costar tissue culture plates (Corning, N.Y., USA) in triplicate. Compound A was dissolved in DMSO (Sigma) and further dilutions were done in culture medium immediately before use. The final DMSO concentration in all samples was 0.25%. Various concentration of Compound A was added to cells one hour before stimulation. Cells were stimulated with LPS (Sigma, St. Louis, Mo., USA) at 100 ng/ml, in the absence or presence of Compound A. Cells were incubated for 18-20 hours at 37 in 5% CO2 and supernatants were then collected, diluted with culture medium and assayed for TNF-α levels by ELISA (Endogen, Boston, Mass., USA) (Muller, G. W., et al., J Med Chem, 1996. 39(17): 3238-40).

spontaneous behavior = experiment: Spontaneous behavior (LABORAS) in non-arthritic mice; format: in vivo; settings: 25 mg/kg/day
Procedure: Behavioral studies: The effect of Compound A (25 mg/kg/day) on spontaneous behavior was assessed using the LABORAS (Laboratory Animal Behavior Observation Registration and Analysis System), which is an automated system that detects vibrations evoked by movement of a single rodent in a cage. Pattern recognition software then recognizes and quantifies behaviors, including grooming, activity, climbing, immobility, and feeding.

[6] = biological target: T1, PDE3 from human platelets (Homo sapiens, UniProt Q14432); experiment: Specificity: PDE3; format: biochemical
T1 construct: PDE3 and PDE5 from human platelets; from tissue; host or cells: human platelets
T1 sequence (Q14432 whole entry): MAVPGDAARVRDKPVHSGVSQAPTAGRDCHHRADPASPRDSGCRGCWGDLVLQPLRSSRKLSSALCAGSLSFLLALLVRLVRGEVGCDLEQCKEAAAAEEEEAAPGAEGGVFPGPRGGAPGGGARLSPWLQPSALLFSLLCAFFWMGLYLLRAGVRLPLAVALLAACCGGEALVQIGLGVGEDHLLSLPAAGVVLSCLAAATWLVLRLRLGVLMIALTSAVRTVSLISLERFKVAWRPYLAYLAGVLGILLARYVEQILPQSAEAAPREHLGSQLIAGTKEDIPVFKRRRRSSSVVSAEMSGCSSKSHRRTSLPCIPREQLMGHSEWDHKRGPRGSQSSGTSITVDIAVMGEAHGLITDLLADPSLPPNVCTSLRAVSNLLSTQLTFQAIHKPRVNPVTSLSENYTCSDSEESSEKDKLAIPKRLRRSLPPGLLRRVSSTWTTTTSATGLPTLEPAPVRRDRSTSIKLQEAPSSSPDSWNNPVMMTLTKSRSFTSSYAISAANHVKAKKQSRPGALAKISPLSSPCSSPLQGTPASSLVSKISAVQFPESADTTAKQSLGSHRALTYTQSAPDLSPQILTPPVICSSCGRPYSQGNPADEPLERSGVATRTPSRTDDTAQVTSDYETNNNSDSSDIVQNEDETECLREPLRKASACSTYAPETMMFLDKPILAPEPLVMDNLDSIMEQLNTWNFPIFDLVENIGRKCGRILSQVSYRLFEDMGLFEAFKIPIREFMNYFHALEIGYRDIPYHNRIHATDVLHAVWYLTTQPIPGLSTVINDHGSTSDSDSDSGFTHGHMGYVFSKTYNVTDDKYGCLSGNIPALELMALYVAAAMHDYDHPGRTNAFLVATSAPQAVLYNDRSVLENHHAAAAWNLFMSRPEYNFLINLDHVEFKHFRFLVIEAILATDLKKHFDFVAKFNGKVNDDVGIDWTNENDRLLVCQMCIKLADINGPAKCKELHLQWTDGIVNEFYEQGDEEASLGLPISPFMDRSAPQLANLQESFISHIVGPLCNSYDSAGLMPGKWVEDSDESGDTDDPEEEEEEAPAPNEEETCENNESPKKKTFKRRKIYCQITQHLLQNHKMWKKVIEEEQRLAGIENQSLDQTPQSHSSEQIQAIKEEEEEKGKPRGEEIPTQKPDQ
Procedure: (§2) The specificity of Compound A for PDE4 was assessed by testing at a single concentration (10 μM) against bovine PDE1, human PDE2, PDE3 and PDE5 from human platelets, and PDE6 from bovine retinal rod outer segments.

bovine PDE1 = experiment: Specificity: PDE1; format: biochemical; settings: at 10 μM
Procedure: as §2

[7] = tested on: CD18 expression on neutrophils; experiment: fMLF-induced neutrophil CD18 expression; format: cell-based; settings: Homo sapiens, 0.5 h, 30 nM fMLF, 30 minutes, flow cytometry
Procedure: as §1

IC50 [1]: 30 nM and 0.014 µg/mL | pIC50 [3]: 7.00 | pIC50 [4]: 7.40 | effect on climbing (spontaneous behavior): little or no effect | effect on grooming (spontaneous behavior): little or no effect | effect on locomotion (spontaneous behavior): only a modest reduction | effect on time spent immobile (spontaneous behavior): little or no effect | inhibition at 10 µM [6]: 9% | IC50 [7]: 23 nM and 0.011 µg/mL
SMILES: CCOc1cc([C@@H](CS(C)(=O)=O)N2Cc3cccc(NC(=O)C4CC4)c3C2=O)ccc1OC [Compound A, cyclopropyl-N-{2-[(1S)-1-(3-ethoxy-4-methoxyphenyl)-2-(methylsulfonyl)ethyl]-3-oxoisoindoline-4-yl}carboxamide]
inhibition at 0.1 mg/kg ([2]; 2 h, 0.1 mg/kg p.o., two hours prior to LPS, n=2, read-out: inhibition of mouse LPS-induced serum TNF-α levels): 3% | inhibition at 1 mg/kg ([2]; 2 h, 1 mg/kg p.o., two hours prior to LPS, n=2, read-out: inhibition of mouse LPS-induced serum TNF-α levels): 83% | ED50 ([2]; read-out: Mouse LPS-induced serum TNF-α inhibition ED50): 0.1 to 1 mg/kg | IC50 [5]: 51 nM and 0.024 µg/mL | PDE1 % inhibition (bovine PDE1): 30%
